Measurements as given in patent US6706664B1, “Benzoxazole compounds, process for the preparation thereof and herbicides” (UBE Industries, Ltd., priority 1999, dated 2004).

What was measured:
Experiment in all cases: Soil treatment test for upland field
Design in all cases: key: 0: normal development; 1: Less damaged; 2: Slightly damaged; 3: Moderately damaged; 4: Severely damaged; 5: All killed
Conditions in all cases: 500 g/ha, glass house 25° C., 3 weeks
solgum = type: in vivo
Excerpt: (§1) (0: normal development, 1: Less damaged, 2: Slightly damaged, 3: Moderately damaged, 4: Severely damaged, 5: All killed).
(§2) Wagner pots, each having an area of 1/5000 are, were packed with Ube soil (alluvial soil), and then each seed of corn, soybean, cotton, wheat, solgum, sugar beat, Large crabgrass, barnyardgrass, green foxtail, blackgrass, annual bluegrass, common lambsquartes, livid amaranth and velvetleaf were planted and covered with soil.
(§3) Each wettable powder of the desired compounds (I) shown in Table 1 prepared in accordance with Example 2 was diluted with water containing a surfactant (0.05%) and uniformly sprayed on the surface of each soil so that an effective concentration of the compound (I) in each herbicide became 500 g/ha. These plants were controlled in a glass house at an average temperature of 25° C. for 3 weeks, and then herbicidal effects thereof were investigated.
(§4) The herbicidal effects were evaluated according to the evaluation method described in the above (1).

soybean = type: in vivo
Excerpt: as §1, §2, §3, §4

corn = type: in vivo
Excerpt: as §1, §2, §3, §4

sugar beat = type: in vivo
Excerpt: as §1, §2, §3, §4

wheat = type: in vivo
Excerpt: as §1, §2, §3, §4

common lambsquartes = type: in vivo, Chenopodium album
Excerpt: as §1, §2, §3, §4

barnyardgrass = type: in vivo, Echinochloa crusgalli
Excerpt: as §1, §2, §3, §4

annual bluegrass = type: in vivo, Poa annua
Excerpt: as §1, §2, §3, §4

Large crabgrass = type: in vivo, Digitaria adscendens
Excerpt: as §1, §2, §3, §4

livid amaranth = type: in vivo, Amaranthus lividus
Excerpt: as §1, §2, §3, §4

green foxtail = type: in vivo, Setaria viridis
Excerpt: as §1, §2, §3, §4

velvetleaf = type: in vivo, Abutilon theophrasti
Excerpt: as §1, §2, §3, §4

cotton = type: in vivo
Excerpt: as §1, §2, §3, §4

blackgrass = type: in vivo, Alopecurus aegualis
Excerpt: as §1, §2, §3, §4

SMILES	Effects Solgum (solgum)	Effects Soybean (soybean)	Effects Corn (corn)	Effects Sugar beat (sugar beat)	Effects Wheat (wheat)	Effects Common lambsquarters (common lambsquartes)	Effects Barnyardgrass (barnyardgrass)	Effects Annual bluegrass (annual bluegrass)	Effects Large crabgrass (Large crabgrass)	Effects Livid amaranth (livid amaranth)	Effects Green foxtail (green foxtail)	Effects Velvetleaf (velvetleaf)	Effects Cotton (cotton)	Effects Blackgrass (blackgrass)
CCC(Oc1cccc(C(F)(F)F)c1)c1nc2ccc(C(F)(F)F)cc2o1 (centres unmarked) [Compound 94]	0	0	0	2	0	1	3	1	5	5	4	0		
CCC(Oc1ccc(Cl)c(C(F)(F)F)c1)c1nc2cc([N+](=O)[O-])ccc2o1 (centres unmarked) [Compound 432]	2	0	0	5	0	3	4	5	5	5	5	2	0	3
CCC(Oc1ccc(F)c(C(F)(F)F)c1)c1nc2cc(Cl)c([N+](=O)[O-])cc2o1 (centres unmarked) [Compound 334, 1-(5-chloro-6-nitrobenzoxazol-2-yl)-1-(4-fluoro-3-(trifluoromethyl)phenoxy)propane]	1	0	0	3	2	2	3	4	5	5	5		1	4
CCC(Oc1ccc(F)c(C(F)(F)F)c1)c1nc2ccc([N+](=O)[O-])cc2o1 (centres unmarked) [Compound 39]	0	0	0	2	0	3		4	4	5	4		1	
CCCC(Oc1cccc(C#N)c1)c1nc2cc(Cl)c(C)cc2o1 (centres unmarked) [Compound 484]	0	0	1	5	0	5		5	5	5	5	5	0	
CCC(Oc1cccc(C#N)c1)c1nc2cc(S(C)(=O)=O)ccc2o1 (centres unmarked) [Compound 507]	0	0	0	0	0	5				5	3		0	
CCC(Oc1ccc(Cl)c(C#N)c1)c1nc2cc(S(C)(=O)=O)ccc2o1 (centres unmarked) [Compound 509]	0	0	0	5	0	5			2	5	3	3	0	
CCC(Oc1ccc(F)c(C(F)(F)F)c1)c1nc2cc(S(C)(=O)=O)c(C)cc2o1 (centres unmarked) [Compound 487]	0	0	0	5	0	4	2	4	5	5	3	3	0	
CCC(Oc1cccc(C(F)(F)F)c1)c1nc2cc(I)ccc2o1 (centres unmarked) [Compound 172]	0	0	0	0	0			3	5	5	5		0	1
CCC(Oc1cccc(C#N)c1)c1nc2cc(Cl)c(C)cc2o1 (centres unmarked) [Compound 481]	0	0	0	3	0	2		2	5	4	4	3	0	
CCC(Oc1ccc(F)c(C(F)(F)F)c1)c1nc2cc(S(C)(=O)=O)ccc2o1 (centres unmarked) [Compound 215]	0	0	0	5	0	4		3	5	5	4	5	1	
CCC(Oc1cccc(C(F)(F)F)c1)c1nc2cc(S(C)(=O)=O)ccc2o1 (centres unmarked) [Compound 216]	0	0	0	5	0	5	3	2	4	5	5	3	0	
CCCC(Oc1cccc(C#N)c1)c1nc2cc(S(C)(=O)=O)ccc2o1 (centres unmarked) [Compound 508]	0	0	0	4	0	3		2	4	5	5	3	0	
